ChEMBL document CHEMBL4130409, “Gordonic Acid, a Polyketide Glycoside Derived from Bacterial Coculture of Streptomyces and Gordonia Species” (J Nat Prod, 2017)

What was measured:
Enterococcus hirae = assay: Antibacterial activity against Enterococcus hirae KCCM 11768 assessed as zone of inhibition at 10 microg/disk after 18 to 36 hrs by agar diffusion method; format: functional; conditions: read-out: DIZ
Micrococcus luteus = assay: Antibacterial activity against Micrococcus luteus KCCM 11548 assessed as zone of inhibition at 10 microg/disk after 18 to 36 hrs by agar diffusion method; format: functional; conditions: read-out: DIZ
Streptomyces tendae = assay: Growth inhibition of Streptomyces tendae KMC006 after 18 to 36 hrs by agar diffusion method; format: organism-based; conditions: in vivo
Gordonia sp. = assay: Growth inhibition of Gordonia sp. KMC005 after 18 to 36 hrs by agar diffusion method

Row | SMILES | zone of inhibition at 10 µg/disc (Enterococcus hirae) [mm] | zone of inhibition at 10 µg/disc (Micrococcus luteus) [mm] | Activity (Streptomyces tendae) | Activity (Gordonia sp.)
1 | CC1(C)S[C@@H]2[C@H](NC(=O)[C@H](N)c3ccccc3)C(=O)N2[C@H]1C(=O)O [AMPICILLIN] | 8 | 10 | – | –
2 | CC(/C=C/C=C/C=C/C=C/C(O)=C1\C(=O)[C@H](CCC(=O)O)N(C)C1=O)=C\[C@@H](C)[C@@H](O[C@H]1C[C@H](O)[C@H](O)[C@@H](C)O1)C(C)C | – | – | Non-Toxic | Non-Toxic
3 | CC(/C=C/C=C/C=C/C=C/C(=O)O)=C\[C@@H](C)[C@@H](O[C@H]1C[C@H](O)[C@H](O)[C@@H](C)O1)C(C)C | 1.5 | 2.5 | Non-Toxic | Non-Toxic
